{
  "source": "patent US20240316008A1",
  "about": "“TREATMENT OF SYSTEMIC IMMUNE ACTIVATION SYNDROMES” (TRANQUIS THERAPEUTICS, INC., priority 2020, published 2024)",
  "key": {"TNFα": {"system": "TNFα", "assay": "TNFα release by LPS-stimulated BV2 cells (ELISA)", "type": "cell-based, murine", "conditions": "BV-2 cells, 10 μM, ELISA at 24 hours", "protocol": "First, 100 μl of supernatant was removed from Cell Plate and transferred to a Dilution Plate, which was then centrifuged at 216×g for 10 minutes to remove particulates. The dilution plate was either assayed immediately or aliquots were taken and stored at stored at ≤−20° C.; repeated freeze-thaw cycles were avoided.\nNext, a standard curve was prepared by first pipetting 900 ul of Calibrator Diluent RD5K into the 700 pg/mL tube, followed by 200 μl of the appropriate calibrator diluent in the remaining tubes. The stock solution was used to produce a dilution. The resulting tubes were then thoroughly mixed. The Mouse TNFα Standard (700 pg/mL) served as the high standard, and the Calibrator Diluent RD5T served as the zero standard at 0 pg/ml.\nAssay Diluent RD1-63 (50 ul) was then added to the center of each well and mixed before and during its use. Then, 50 ul of either standard, control, or sample was added to the center of each well, and covered with adhesive strip. The plate was then mixed for 1 minute and incubated for 2 hours at room temperature.\nEach well was then aspirated and washed by filling each well with Wash Buffer (400 ul) five times. After the last wash, the remaining Wash Buffer was removed by aspirating or decanting. TNFα […] conjugate (100 ul) was then added to each well, covered with adhesive strip, incubated for 2 hours at room temperature, and washed and/or aspirated five times.\nSubstrate solution (100 ul) was then added to each well, incubated in the dark for 30 minutes at room temperature, followed by addition of 100 μl of Stop Solution and mixed. The optical density of each well was determined within 30 minutes by using a microplate reader set to 450 nm.\nPlates were read on a Spectrostar Nano machine with built-in MARS data analysis at […].\nFor TNFα ELISA, the BV-2 cells were very responsive to low concentrations of LPS. A concentration range of 0.1 ng/ml to 1,000 ng/ml was tested. 0.3 ng/ml LPS produced enough TNFα release (8-10 fold above background) from these cells after 22 hours stimulation without saturating the linear range of the ELISA detection system. If higher LPS concentrations are used for stimulating BV-2 cells, a […] is advised to stay within the linear range of the detection system. The current TNFα protocol uses 10,000 cells per well in 96 well plate. A cell count titration can optimize S/B ratio. Miniaturization from 96 well to 384 well is also feasible with this assay.\nThe TNFα ELISA assay is described in Example 5. The IL-6 assay is described below."}, "IL-6": {"system": "IL-6", "assay": "LPS-stimulated IL-6 secretion from human PBMC (ELISA)", "type": "cell-based", "conditions": "human PBMC from a first donor, 1 ng/ml LPS, 24h", "protocol": "Briefly, 20,000 human PBMC were aliquoted into each well. LPS was added at 1 ng/ml and the cells incubated for 24h in the presence of LPS and TQS-168 or one of its metabolites. Readouts were human IL-6 ELISA and human TNFα ELISA. For assay, supernatants were diluted in culture medium. The supernatant dilution for the IL-6 ELISA was 1:8, and 1:2 for the human TNFα ELISA."}, "[1]": {"system": "neurodegenerative diseases", "conditions": "murine models of Parkinson's disease, Alzheimer's disease, ALS; cited from earlier work"}, "sepsis": {"system": "sepsis", "assay": "Mouse model of sepsis / hyperinflammation (virus followed by LPS, as described in Wang)", "conditions": "mice, intravenous, various doses", "quoted_text": "Briefly, mice are anesthetized with a ketamine/xylazine mixture. A virus, such as a coronavirus, influenza virus, rhinovirus, respiratory syncytial virus, metapneumovirus, adenovirus, or a boca virus, is administered. The virus may be administered intranasally dropwise.\nNext, LPS diluted in a buffer, such as PBS, is injected intraperitoneally at specific doses.\nTo provide comparators for assessing the effects of TQS-168 and its analogs, groups of positive control mice are treated with one or more antibodies against pro-inflammatory cytokines of interest: anti-NK1.1 antibody (PK136; Bio X Cell) diluted in PBS is injected at 100 μg per injection (100 μL) retro-orbitally concurrently with each challenge; anti-IFNγ antibody (XMG1.2, Bio X Cell) is diluted in PBS and injected at 500 μg per injection (100 μL) retro-orbitally concurrently with each challenge; anti-IL6R (15A7.10 mg/kg; Bio X Cell), anti-TNFα (XT3.11, 500 μg per injection; Bio X Cell), anti-IFNαR (MAR1-5A3, 10 mg/kg; Bio X Cell), and anti-IL1β (B122, 500 μg per injection; Bio X Cell) are injected retro-orbitally. For a negative control, isotype antibody is injected retro-orbitally.\nThe pro-inflammatory cytokines can be measured using the ELISA assay described in Example 1."}},
  "data": [
    {"smiles": "CC(C)(C)c1ccc(-c2nc3ccccc3[nH]2)cc1", "note": "[TQS-168, 2-(4-tert-butylphenyl)-1H-benzimidazole]", "values": [
      {"measurement": "suppression of TNFα production", "setting": "TNFα; 0.3 ng/ml LPS", "result": "about 25%"},
      {"measurement": "inhibition at 10 µM", "setting": "TNFα; Mus musculus, 1 ng/ml LPS, read-out: inhibition of TNFα production", "result": "~35", "unit": "%"},
      {"measurement": "LPS-stimulated IL-6 secretion from PBMCs", "setting": "IL-6", "result": "inhibition"},
      {"measurement": "disease severity", "setting": "[1]", "result": "reduce"},
      {"measurement": "myeloid-mediated inflammation", "setting": "[1]", "result": "suppress"},
      {"measurement": "circulating concentrations of pro-inflammatory cytokines", "setting": "sepsis", "result": "effective in reducing"},
      {"measurement": "hyperinflammatory symptoms", "setting": "sepsis", "result": "effective in reducing"}
    ]}
  ]
}
